Values quoted from earlier work in paper PMC12060149 (RSC Advances, 2025).

Assays:
breast cancer tumor = conditions: mice
ACE2 = ACE2 (Homo sapiens, UniProt Q9BYF1)
Sequence of ACE2 (Q9BYF1 18-805): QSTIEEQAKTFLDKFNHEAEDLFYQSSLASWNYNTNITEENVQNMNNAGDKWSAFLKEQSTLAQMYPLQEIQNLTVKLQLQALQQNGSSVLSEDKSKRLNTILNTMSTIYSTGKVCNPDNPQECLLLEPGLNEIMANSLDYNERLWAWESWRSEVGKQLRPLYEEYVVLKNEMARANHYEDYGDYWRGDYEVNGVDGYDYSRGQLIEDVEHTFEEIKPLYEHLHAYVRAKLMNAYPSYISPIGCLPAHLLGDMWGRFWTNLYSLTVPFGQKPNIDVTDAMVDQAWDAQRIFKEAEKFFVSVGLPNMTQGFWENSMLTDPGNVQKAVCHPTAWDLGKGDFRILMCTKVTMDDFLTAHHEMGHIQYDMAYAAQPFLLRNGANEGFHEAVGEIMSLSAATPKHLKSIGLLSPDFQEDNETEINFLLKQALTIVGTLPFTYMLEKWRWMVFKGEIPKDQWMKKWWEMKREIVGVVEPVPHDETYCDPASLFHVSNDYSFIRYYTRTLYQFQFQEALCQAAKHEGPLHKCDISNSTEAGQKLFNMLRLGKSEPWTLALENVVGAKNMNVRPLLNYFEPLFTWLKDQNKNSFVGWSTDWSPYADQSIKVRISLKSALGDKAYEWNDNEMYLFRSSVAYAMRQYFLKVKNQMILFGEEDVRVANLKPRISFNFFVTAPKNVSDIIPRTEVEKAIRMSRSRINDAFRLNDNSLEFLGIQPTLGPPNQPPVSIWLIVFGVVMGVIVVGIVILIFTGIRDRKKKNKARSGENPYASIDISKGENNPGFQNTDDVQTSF

Question: What does the source list for NCCC(=O)N[C@@H](Cc1cnc[nH]1)C(=O)O [carnosine, Carnosine]?
Answer: breast cancer tumor size (breast cancer tumor): reduces the breast cancer tumor size; MCF-7 proliferation (MCF-7; carnosine in the 100–300 mM range): increased but non-significantly; IC50 (MCF-7; read-out: IC50 of antiproliferative effect, two other research groups): ~68 mM; concentration range of mild ACE2 inhibition (ACE2): 100 to 300 mM
